Tests used:
[1] = system: Pythium ultimum; assay: Amended agar assay; format: cell-based; details: Globisporangium ultimum; potato dextrose agar amended with compound at 2 ppm, 18° C., 2 to 7 days; read-out: % control Pythium ultimum (% reduction in colony growth compared to the control plate)
Experimental: Amended Agar Assay Testing was carried out on potato dextrose agar (PDA) amended with each compound at a test concentration of 2 ppm. Amended agar was poured into three replicate 9 cm petri dishes. Each replicate dish was inoculated in the centre with a 5 mm agar plug taken from the leading edge of a culture aged between 2 and 7 days old; the age of the culture was dependent on the growth rate of the pathogen being tested. The test pathogen was Pythium ultimum. Plates were incubated at 18° C. and the diameter of each colony measured before growth on the fastest growing plate reached the plate edge. This varied between 2 and 7 days depending on the growth rate of test pathogens. The % reduction in colony growth compared to the control plate was calculated. The results are provided in Table 1, in which D represents no control detected at this concentration; C represents up to 50% control; B from 50 to 99% control; and A represents a control of greater than 99%, i.e. no detectable colony growth.

[2] = system: Phytophthora cactorum; assay: 96 well plate test; format: cell-based; details: Phytophthora cactorum; agar amended to 2, 0.2, 0.02 and 0.002 ppm, 18° C., assessed after 2 to 3 days
Experimental: Compounds were screened in 96 well plates with 10 compounds per plate. Each compound was screened using agar amended to 2, 0.2, 0.02 and 0.002 ppm, with proline at 50 and 10 ppm and 0.2% DMSO used as controls. Each test concentration and standard was replicated twice on a plate. Compounds were screened against Phytophthora cactorum. The agar used in the test is a 1% potato dextrose agar. 1000 spores/mL agar were added to the appropriate agar.
A ×10 stock solution in 2% DMSO was produced for each dose i.e. 20, 2, 0.2 and 0.02 ppm, and 10 μl of this added to the appropriate wells on the plate. An equivalent amount of 2% DMSO and proline stock at 500 and 100 ppm were added for the controls. To each well 90 μl of the appropriate agar spore suspension was added to give the required final well concentrations. Plates were incubated at room temperature (18° C.) and assessed after 2 to 3 days. The amount of pathogen growth in each well was compared to the DMSO controls and an EC50 concentration was calculated. The results are provided in Table 1 in which G represents no control detected at 2 ppm, F represents an EC50 of ≥2 ppm, and E represents an EC50 of less than 2 ppm.

EC50 [2] [µg/mL] | Compound | inhibition of growth at 2 ppm [1] [%]
< 2 | CCCOC(=O)Nc1cccc(COc2nc3c(Br)cccc3n2-c2nnnn2C)n1 [Compound 39] | > 99
< 2 | Cn1nnnc1-n1c(OCc2cccc(NC(=O)CC(F)(F)F)n2)nc2c(Cl)cccc21 [Compound 30] | > 99
< 2 | CC(C)CC(=O)Nc1cccc(COc2nc3c(Cl)cccc3n2-c2nnnn2C)n1 [Compound 26] | > 99
< 2 | COc1cccc2c1nc(OCc1cccc(NC(=O)OC(C)(C)C)n1)n2-c1nnnn1C [Compound 8] | > 99
< 2 | Cn1nnnc1-n1c(OCc2cccc(NC(=O)C(F)(F)F)n2)nc2c(Cl)cccc21 [Compound 29] | > 99
< 2 | CC(C)COC(=O)Nc1cccc(COc2nc3c(Cl)cccc3n2-c2nnnn2C)n1 [Compound 15] | > 99
≥ 2 | CCC(=O)Nc1cccc(COc2nc3c(Cl)cccc3n2-c2nnnn2C)n1 [Compound 23, N-(6-(((4-Chloro-1-(1-methyl-1H-tetrazol-5-yl)-1H-benzo[d]imidazol-2-yl)oxy)methyl)pyridin-2-yl)propionamide] | > 99
< 2 | CC(C)C(=O)Nc1cccc(COc2nc3c(Cl)cccc3n2-c2nnnn2C)n1 [Compound 24] | > 99
< 2 | C=CCOc1cccc2c1nc(OCc1cccc(NC(=O)OC(C)(C)C)n1)n2-c1nnnn1C [Compound 7, tert-butyl (6-(((4-(allyloxy)-1-(1-methyl-1H-tetrazol-5-yl)-1H-benzo[d]imidazol-2-yl)oxy)methyl)pyridin-2-yl)carbamate] | > 99
≥ 2 | CC(C)OC(=O)Nc1cccc(COc2nc3c(Cl)cccc3n2-c2nnnn2C)n1 [Compound 18] | > 99
< 2 | CC(C)COC(=O)Nc1cccc(COc2nc3c(-c4ccccc4)cccc3n2-c2nnnn2C)n1 [Compound 46] | > 99
< 2 | Cn1nnnc1-n1c(OCc2cccc(NC(=O)OC3CCCC3)n2)nc2c(Br)cccc21 [Compound 40] | > 99
< 2 | Cn1nnnc1-n1c(OCc2cccc(NC(=O)C3CCC3)n2)nc2c(Cl)cccc21 [Compound 32] | > 99
< 2 | Cn1nnnc1-n1c(OCc2cccc(NC(=O)c3ccccc3)n2)nc2c(Cl)cccc21 [Compound 31] | > 99
≥ 2 | CC(=O)Nc1cccc(COc2nc3c(Cl)cccc3n2-c2nnnn2C)n1 [Compound 28] | 50 to 99
< 2 | CCCCOC(=O)Nc1cccc(COc2nc3c(Br)cccc3n2-c2nnnn2C)n1 [Compound 35] | > 99
< 2 | CCCC(=O)Nc1cccc(COc2nc3c(Cl)cccc3n2-c2nnnn2C)n1 [Compound 12] | > 99
≥ 2 | Cn1nnnc1-n1c(OCc2cccc(NC(=O)OC(C)(C)C)n2)nc2c(O)cccc21 [Compound 22, tert-Butyl (6-(((4-hydroxy-1-(1-methyl-1H-tetrazol-5-yl)-1H-benzo[d]imidazol-2-yl)oxy)methyl)pyridin-2-yl)carbamate] | 50 to 99
< 2 | CC(C)CC(=O)Nc1cccc(COc2nc3c(Br)cccc3n2-c2nnnn2C)n1 [Compound 41] | > 99
< 2 | Cn1nnnc1-n1c(OCc2cccc(NC(=O)OC(C)(C)C)n2)nc2c(-c3ccccc3)cccc21 [Compound 45, tert-Buty (6-(((1-(1-methyl-1H-tetrazol-5-yl)-4-phenyl-1H-benzo[d]imidazol-2-yl)oxy)methyl)pyridin-2-yl)carbamate] | > 99

EC50 [2] [µg/mL] | Compound | inhibition of growth at 2 ppm [1] [%]
< 2 | CCCCOC(=O)Nc1cccc(COc2nc3c(Cl)cccc3n2-c2nnnn2C)n1 [Compound 13] | > 99
< 2 | Cn1nnnc1-n1c(OCc2cccc(NC(=O)OC(C)(C)C)n2)nc2c(Cl)cccc21 [Compound 3] | > 99
< 2 | Cn1nnnc1-n1c(OCc2cccc(NC(=O)OC(C)(C)C)n2)nc2c(Br)cccc21 [Compound 34, tert-Butyl (6-(((4-bromo-1-(1-methyl-1H-tetrazol-5-yl)-1H-benzo[d]imidazol-2-yl)oxy)methyl)pyridin-2-yl)carbamate] | > 99
< 2 | Cn1nnnc1-n1c(OCc2cccc(NC(=O)C(C)(C)C)n2)nc2c(Cl)cccc21 [Compound 19] | > 99
< 2 | COc1cc(F)cc2c1nc(OCc1cccc(NC(=O)COc3ccccc3)n1)n2-c1nnnn1C [Compound 5] | > 99
< 2 | CCC(CC)C(=O)Nc1cccc(COc2nc3c(Cl)cccc3n2-c2nnnn2C)n1 [Compound 27] | > 99
≥ 2 | COc1cc(F)cc2c1nc(OCc1cccc(NC(=O)C3CC3)n1)n2-c1nnnn1C [Compound 6] | 50 to 99
< 2 | Cn1nnnc1-n1c(OCc2cccc(NC(=O)COc3ccccc3)n2)nc2c(Br)cccc21 [Compound 36] | > 99
< 2 | CCCOC(=O)Nc1cccc(COc2nc3c(Cl)cccc3n2-c2nnnn2C)n1 [Compound 16] | > 99
< 2 | CCCCC(=O)Nc1cccc(COc2nc3c(Cl)cccc3n2-c2nnnn2C)n1 [Compound 25] | > 99
< 2 | Cc1cccc2c1nc(OCc1cccc(NC(=O)COc3ccccc3)n1)n2-c1nnnn1C [Compound 20] | > 99
≥ 2 | CC(C)CCC(=O)Nc1nc(COc2nc3c(Cl)cccc3n2-c2nnnn2C)cs1 [Compound 44] | < 50
< 2 | Cn1nnnc1-n1c(OCc2cccc(NC(=O)COc3ccccc3)n2)nc2c(Cl)cccc21 [Compound 2] | > 99
< 2 | Cn1nnnc1-n1c(OCc2cccc(NC(=O)C3CCCC3)n2)nc2c(Br)cccc21 [Compound 37] | > 99
< 2 | C=CCOC(=O)Nc1cccc(COc2nc3c(Cl)cccc3n2-c2nnnn2C)n1 [Compound 11] | > 99
≥ 2 | CCOC(=O)Nc1cccc(COc2nc3c(Cl)cccc3n2-c2nnnn2C)n1 [Compound 14] | > 99
< 2 | Cc1cccc2c1nc(OCc1cccc(NC(=O)OC(C)(C)C)n1)n2-c1nnnn1C [Compound 21] | > 99
< 2 | CCCCC(=O)Nc1cccc(COc2nc3c(Br)cccc3n2-c2nnnn2C)n1 [Compound 42] | > 99
< 2 | CC(C)COC(=O)Nc1cccc(COc2nc3c(C4CC4)cccc3n2-c2nnnn2C)n1 [Compound 47] | > 99
< 2 | Cn1nnnc1-n1c(OCc2cccc(NC(=O)C3CCCC3)n2)nc2c(Cl)cccc21 [Compound 10] | > 99
